Measured values taken from patent US12697376B2, “Cationic lipid compounds” (Guangzhou Anobri Pharmaceutical Co. Ltd., priority 2021, dated 2026).

Columns and labels:
[1] = Determination of the pKa of the cationic lipid in lipid nanoparticles by TNS fluorescence; format: physicochemical; conditions: probe 2-(p-toluidine)-6-naphthalenesulfonic acid (TNS), 1 uM final, cationic lipid in LNP (cationic lipid/DSPC/cholesterol/PEG lipid 50/10/38/2 mol %), pH of half-maximal fluorescence
Method: (§1) Cationic lipids, DSPC, cholesterol, and PEG-lipids were dissolved in ethanol in molar ratios of 50:10:38:2 or 48:10:40:2. Lipid nanoparticles (LNPs) were prepared in a ratio of total lipid to mRNA by weight of about 10:1 to 30:1. Briefly, mRNA was diluted to 0.15 mg/ml in 10 to 50 ml of citrate buffer (pH=4). Using a syringe pump, an ethanolic solution of lipids was mixed with an aqueous mRNA solution in a ratio of approximately 1:5 to 1:3 by volume at a total flow rate of over 10 ml/min. Ethanol was then removed and the external buffer was replaced by dialysis-class PBS. Finally, the lipid nanoparticles were filtered through a sterile filter with a pore size of 0.2 um. The particle size of the lipid nanoparticles was approximately 65-105 nm in diameter and, in some cases, approximately 75-100 nm in diameter, determined by quasi-elastic light scattering using Malvern Zetasizer Nano ZS.
The pKa of the formulated cationic lipid correlates with the effectiveness of the LNP for nucleic acid delivery. The preferred pKa range is from 5 to 7. The pKa of each cationic lipid was determined in lipid nanoparticles using an analysis based on the fluorescence of 2-(p-toluidine)-6-naphthalenesulfonic acid (TNS). Lipid nanoparticles containing cationic lipids/DSPC/cholesterol/PEG lipids (50/10/38/2 mol %) at a concentration of 0.4 mM total lipid in PBS were prepared using an ordered method as described in Example 10. TNS was prepared as a 100 μM stock solution in distilled water. The vesicles were diluted to contain 24 uM lipid in a 2 mL buffer solution containing 10 mM HEPES, 10 mM MES, 10 mM acetic acid, and 130 mM NaCl, pH 2.5-11. Aliquots of 100 μM TNS stock solution were added to bring the final concentration to 1 uM. After vortex mixing, fluorescence intensity was measured in an SLM Aminco Series 2 luminescence spectrophotometer at room temperature using excitation and emission wavelengths of 321 nm and 445 nm. Fluorescence data were analyzed using a s-shaped curve fitting and pKa was determined by measuring the pH that produced half-maximal fluorescence intensity.

[2] = system: luciferase expression in the liver; test: In vivo luciferase mRNA expression in liver after tail vein injection of FLuc mRNA lipid nanoparticles; design: species or system mice; conditions: liver 5 hours after administration, LNP 50% cationic lipid/10% DSPC/38% cholesterol/2% PEG-DMG; for Liver Luc @ 0.3 mg/kg dose: 0.3 mg mRNA/kg; for Liver Luc @ 1.0 mg/kg dose: 1.0 mg mRNA/kg
Method: as §1
According to the guidelines set by the State Scientific and Technological Commission of The People's Republic of China, female C57BL/6 mice aged 6-8 weeks and CD-1 mice aged 8-10 weeks were used to perform the study. Various doses of mRNA lipid nanoparticles were administered by intravenous injection and the animals were euthanized at specific time points (e.g., 5 hours) post-administration. The liver and spleen were collected, weighed, immediately frozen in liquid nitrogen, and stored at −80° C. until being used for analysis.
For the liver, approximately 50 mg of liver tissue was cut and placed in 2 mL FastPrep tubes (MP Biomedicals, Solon OH) for analysis. ¼″ ceramic beads (MP Biomedicals) and 500 μL of room temperature Glo Lysis Buffer-GLB (Promega, Madison WI) were then added to each tube. The liver tissue was then homogenized for 15 seconds at a speed of 2×6.0 m/s using a FastPrep24 instrument (MP Biomedicals). The homogenates were incubated at room temperature for 5 minutes, then diluted with GLB in a ratio of 1:4, and finally evaluated using the SteadyGlo luciferase assay system (Promega). Specifically, 50 μL of diluted tissue homogenate was mixed with 50 μL of SteadyGlo substrate. The mixture was shaken for 10 seconds, then incubated at room temperature for 5 minutes, and subsequently quantified using a SpectraMAX_L chemiluminescent plate reader (Meigu Molecular Instrument (Shanghai) Co., Ltd.). The amount of protein was measured by using the BCA Protein Quantitation Kit (Shanghai Colorless Medical Technology Co., Ltd.). Relative luminescence units (RLU) were normalized to the total ug of the measured protein. To convert RLU into μg luciferase, a standard curve was generated using QuantiLum recombinant luciferase (Promega).
FLuc mRNA (L-6107) from Trilink Biotechnologies, which was originally isolated from fireflies (Photinus pyralis), will express luciferase protein. Fluc is commonly used in mammalian cell cultures to measure gene expression and cell viability. It emits biological light in the presence of the substrate luciferin. This capped and polyadenylated mRNA was completely replaced by 5-methylcytidine and pseudouridine.
For comparison purposes, these lipids were also used to formulate lipid nanoparticles containing FLuc mRNA (L-6107) using an ordered mixing method, as described in Example 10. Lipid nanoparticles were formulated with the following molar ratio: 50% cationic lipid/10% distearylphosphatidylcholine (DSPC)/38% cholesterol/2% PEG lipid (“PEG-DMG”, i.e., (1-(monomethoxy-polyethylene glycol)-2,3-dimyristoylglycerol, average PEG molecular weight 2000). As described in Example 10, relative activity was determined by measuring luciferase expression in the liver 5 hours after administration via tail vein injection. The activity was compared at doses of 0.3 and 1.0 mg mRNA/kg and expressed as ng luciferase/g liver measured 5 hours after administration as described in Example 10.

For `CCCCCCCCC(C)(CCCCCC)C(=O)OCCCCCCN(CCCCO)CCCCCCOC(=O)C(CCC)(CCCCCC)CCCCCCCC` (stereo not drawn) [Compound 6], the pKa [1] was 6.13, the “Liver Luc @ 0.3 mg/kg dose” value [2] was 1628 ± 432 ng luciferase/g liver and the “Liver Luc @ 1.0 mg/kg dose” value [2] was 11753 ± 2598 ng luciferase/g liver.

In the case of `CCCCCCCCC(C)(CCCCCC)C(=O)OCCCCCCN(CCCCO)CCCCCCOC(=O)C(C)(CCCCCC)CCCCCCCC` (stereo not drawn) [Compound 4], the pKa [1] is reported as 6.12, the “Liver Luc @ 0.3 mg/kg dose” value [2] is reported as 1179 ± 362 ng luciferase/g liver and the “Liver Luc @ 1.0 mg/kg dose” value [2] is reported as 8630 ± 824 ng luciferase/g liver.

With `CCCCCCCCC(CC)(CCCCCC)C(=O)OCCCCCCN(CCCCO)CCCCCCOC(=O)C(CCC)(CCCCCC)CCCCCCCC` (stereo not drawn) [Compound 8] the pKa [1] was 5.98, the “Liver Luc @ 0.3 mg/kg dose” value [2] was 985 ± 625 ng luciferase/g liver and the “Liver Luc @ 1.0 mg/kg dose” value [2] was 7188 ± 942 ng luciferase/g liver.

In the case of `CCCCCCCCC(CCCCCC)C(=O)OCCCCCCN(CCCCO)CCCCCCOC(=O)C(C)(CCCCCC)CCCCCCCC` (stereo not drawn) [Compound 1], the pKa [1] is reported as 6.25, the “Liver Luc @ 0.3 mg/kg dose” value [2] is reported as 1424 ± 265 ng luciferase/g liver and the “Liver Luc @ 1.0 mg/kg dose” value [2] is reported as 10318 ± 1304 ng luciferase/g liver.

For `CCCCCCCCC(CCC)(CCCCCC)C(=O)OCCCCCCN(CCCCO)CCCCCCOC(=O)C(CCC)(CCCCCC)CCCCCCCC` (stereo not drawn) [Compound 9], the pKa [1] was 6.05, the “Liver Luc @ 0.3 mg/kg dose” value [2] was 1138 ± 265 ng luciferase/g liver and the “Liver Luc @ 1.0 mg/kg dose” value [2] was 8443 ± 1045 ng luciferase/g liver.

With `CCCCCCCCC(CC)(CCCCCC)C(=O)OCCCCCCN(CCCCO)CCCCCCOC(=O)C(CC)(CCCCCC)CCCCCCCC` (stereo not drawn) [Compound 7] the pKa [1] was 6.08, the “Liver Luc @ 0.3 mg/kg dose” value [2] was 1218 ± 359 ng luciferase/g liver and the “Liver Luc @ 1.0 mg/kg dose” value [2] was 8914 ± 1487 ng luciferase/g liver.

For `CCCCCCCCC(CCCCCC)C(=O)OCCCCCCN(CCCCO)CCCCCCOC(=O)C(CCC)(CCCCCC)CCCCCCCC` (stereo not drawn) [Compound 3], the pKa [1] was 6.22, the “Liver Luc @ 0.3 mg/kg dose” value [2] was 961 ± 469 ng luciferase/g liver and the “Liver Luc @ 1.0 mg/kg dose” value [2] was 6917 ± 642 ng luciferase/g liver.

For `CCCCCCCCC(CCCCCC)C(=O)OCCCCCCN(CCCCO)CCCCCCOC(=O)C(CC)(CCCCCC)CCCCCCCC` (stereo not drawn) [Compound 2], the pKa [1] was 5.91, the “Liver Luc @ 0.3 mg/kg dose” value [2] was 1469 ± 294 ng luciferase/g liver and the “Liver Luc @ 1.0 mg/kg dose” value [2] was 10671 ± 1912 ng luciferase/g liver.

With `CCCCCCCCC(C)(CCCCCC)C(=O)OCCCCCCN(CCCCO)CCCCCCOC(=O)C(CC)(CCCCCC)CCCCCCCC` (stereo not drawn) [Compound 5] the pKa [1] was 5.89, the “Liver Luc @ 0.3 mg/kg dose” value [2] was 1424 ± 289 ng luciferase/g liver and the “Liver Luc @ 1.0 mg/kg dose” value [2] was 10372 ± 2096 ng luciferase/g liver.
